Source: US20240238310A1, “MODULATION OF SEX STEROID HORMONE PRODUCTION AND ACTIVITY FOR TREATING AND PREVENTING HERNIAS” (Northwestern University, priority 2020, published 2024)

Test system: LAMT primary fibroblasts from Arom^hum mice
Test: mRNA levels of estrogen-responsive and fibrotic genes in LAMT primary fibroblasts after E2 antagonist treatment
Assay type: cell-based, mouse
Details: 100 nM ICI 182,780, pretreated 2 hours before addition of E2 (10 nM)
Experimental: FIG. 10. mRNA levels of estrogen-responsive genes [Pgr (A, E) and Greb1 (B, F)] and fibrotic genes [Spon2 (C, G), Kiss1 (D), and Eln (H)] in LAMT primary fibroblasts from Arom^hum mice after treatment with 100 nM ICI 182,780 (ICI) or […] MPP in the presence or absence of E2 (10 nM). Cells were pretreated with ICI 182,780 or MPP for 2 hours before the addition of E2. Veh, vehicle. *P<0.05, **P<0.01. GAPDH mRNA levels served as controls.
Experiment 1a2: Does the general E2 antagonist fulvestrant, which downregulates and blocks ER, or ERα-selective E2 antagonist MPP prevent, arrest or reverse LAMT muscle fibrosis, atrophy and inguinal hernias in male Arom^hum mice? […] Here, we will define whether the effects of E2 on hernia formation in LAMT is mediated via ERα in vivo. We will treat Arom^hum or WT mice with vehicle, fulvestrant (ICI 182,780), or MPP. […] Circulating and muscle tissue E2 levels will be measured using LC-MS^2. To validate the effects of each treatment, protein expression of ERα and E2/ERα target genes (Ccnd1, Pgr, and Greb1), and cell proliferation markers (Ki67 and PCNA) will be determined by IHC and immunoblotting. Fibrotic-related genes (Kiss1, Ren1, Emb, Timp1, Spon2, and Eln), the ECM marker Col1a1, and the myocyte marker Myh will be assessed using qPCR and IHC in LAMT after fulvestrant, MPP, and/or letrozole treatment. […]

With `C[C@]12CC[C@@H]3c4ccc(O)cc4C[C@@H](CCCCCCCCC[S+]([O-])CCCC(F)(F)C(F)(F)F)[C@H]3[C@@H]1CC[C@@H]2O` (stereo partly shown) [fulvestrant] the “E2-induced expression of estrogen-responsive genes (Pgr and Greb1) and fibrotic genes (Spon2, Kiss1, Eln)” value was “significantly decreased E2-induced expression of estrogen-responsive genes (Pgr and Greb1) and fibrotic genes (Spon2, Kiss1 and, Eln)”.
